Test results taken from PubChem BioAssay AID2060885 (Molecular Pharmacology Branch, DTP, NCI, 2025).

Tested on: NCI-H23 complex spheroids with HUVEC/MSC, viability
Assay: Anticancer human tumor NCI-H23 cell line growth inhibition [RAS];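 further: spheroids exposed to compound for 7 days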;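 on viability, T/C: 100% = DMSO vehicle control viability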
Settings: for IC50: curve of first compound; for viability, T/C: stronger effect = lower value; active means viability on the fitted dose curve at most 10% of control; inactive means the rest
Method in brief: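 Tumour cells grown as complex spheroids with HUVEC endothelial cells and mesenchymal stem cells, treated with RAS pathway inhibitor combinations. Each agent spans half-log steps from near clinical Cmax, or 10 microM where Cmax is unknown.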

[1] = second compound 0.000949 µM, first compound 0.0316 µM
[2] = second compound 0.000949 µM, first compound 0.1 µM
[3] = second compound 0.000949 µM, first compound 0.316 µM
[4] = second compound 0.000949 µM, first compound 1 µM
[5] = second compound 0.000949 µM, first compound 3.16 µM
[6] = second compound 0.000949 µM, first compound 10 µM
[7] = second compound 0.003 µM, first compound 0.0316 µM
[8] = second compound 0.003 µM, first compound 0.1 µM
[9] = second compound 0.003 µM, first compound 0.316 µM
[10] = second compound 0.003 µM, first compound 1 µM
[11] = second compound 0.003 µM, first compound 3.16 µM
[12] = second compound 0.003 µM, first compound 10 µM
[13] = second compound 0.00949 µM, first compound 0.0316 µM
[14] = second compound 0.00949 µM, first compound 0.1 µM
[15] = second compound 0.00949 µM, first compound 0.316 µM
[16] = second compound 0.00949 µM, first compound 1 µM
[17] = second compound 0.00949 µM, first compound 3.16 µM
[18] = second compound 0.00949 µM, first compound 10 µM
[19] = second compound 0.03 µM, first compound 0.0316 µM
[20] = second compound 0.03 µM, first compound 0.1 µM
[21] = second compound 0.03 µM, first compound 0.316 µM
[22] = second compound 0.03 µM, first compound 1 µM
[23] = second compound 0.03 µM, first compound 3.16 µM
[24] = second compound 0.03 µM, first compound 10 µM
[25] = second compound 0.0949 µM, first compound 0.0316 µM
[26] = second compound 0.0949 µM, first compound 0.1 µM
[27] = second compound 0.0949 µM, first compound 0.316 µM
[28] = second compound 0.0949 µM, first compound 1 µM
[29] = second compound 0.0949 µM, first compound 3.16 µM
[30] = second compound 0.0949 µM, first compound 10 µM
[31] = second compound 0.3 µM, first compound 0.0316 µM
[32] = second compound 0.3 µM, first compound 0.1 µM
[33] = second compound 0.3 µM, first compound 0.316 µM
[34] = second compound 0.3 µM, first compound 1 µM
[35] = second compound 0.3 µM, first compound 3.16 µM
[36] = second compound 0.3 µM, first compound 10 µM

CC(C)NCC(C(=O)N1CCN(c2ncnc3c2C(C)CC3O)CC1)c1ccc(Cl)cc1 (stereo unspecified) + CCn1c(-c2cccnc2C(C)OC)c2c3cc(ccc31)N1CCOC(CC(NC(=O)C(C(C)C)N(C)C(=O)C3(F)CCN(C(=O)C#CC(C)(C)N(C)C)CC3)C(=O)N3CCCC(N3)C(=O)OCC(C)(C)C2)C1
< 31.6 nM: IC50 (second compound 0.000949 µM) | IC50 (second compound 0.003 µM) | IC50 (second compound 0.00949 µM) | IC50 (second compound 0.03 µM) | IC50 (second compound 0.0949 µM) | IC50 (second compound 0.3 µM)
inactive: viability, T/C [1] 33.6% | viability, T/C [2] 35.1% | viability, T/C [3] 23.7% | viability, T/C [4] 23.4% | viability, T/C [5] 17.5% | viability, T/C [6] 11.6% | viability, T/C [7] 33.8% | viability, T/C [8] 27.3% | viability, T/C [9] 22% | viability, T/C [10] 18.7% | viability, T/C [11] 18.1% | viability, T/C [12] 10.3% | viability, T/C [13] 28.9% | viability, T/C [14] 24.2% | viability, T/C [15] 25.3% | viability, T/C [16] 19.6% | viability, T/C [17] 14.9% | viability, T/C [18] 12.3% | viability, T/C [19] 30.9% | viability, T/C [20] 25.3% | viability, T/C [21] 25.2% | viability, T/C [22] 20.4% | viability, T/C [23] 13.8% | viability, T/C [24] 12.3% | viability, T/C [25] 24.3% | viability, T/C [26] 26.8% | viability, T/C [27] 22.6% | viability, T/C [28] 19.6% | viability, T/C [29] 13.3% | viability, T/C [30] 12.5% | viability, T/C [31] 21.4% | viability, T/C [32] 23.2% | viability, T/C [33] 22% | viability, T/C [34] 16.6% | viability, T/C [35] 11.6% | viability, T/C [36] 13.5%

CC(Nc1ccc2c(c1)OCCn1cc(N3C(=O)OCC3C(F)F)nc1-2)C(N)=O (stereo unspecified) + CCn1c(-c2cccnc2C(C)OC)c2c3cc(ccc31)N1CCOC(CC(NC(=O)C(C(C)C)N(C)C(=O)C3(F)CCN(C(=O)C#CC(C)(C)N(C)C)CC3)C(=O)N3CCCC(N3)C(=O)OCC(C)(C)C2)C1
< 31.6 nM: IC50 (second compound 0.000949 µM) | IC50 (second compound 0.003 µM) | IC50 (second compound 0.00949 µM) | IC50 (second compound 0.03 µM) | IC50 (second compound 0.0949 µM) | IC50 (second compound 0.3 µM)
inactive: viability, T/C [1] 29.1% | viability, T/C [2] 22.3% | viability, T/C [3] 21% | viability, T/C [4] 23.1% | viability, T/C [5] 21.2% | viability, T/C [6] 14% | viability, T/C [7] 28.8% | viability, T/C [8] 23.6% | viability, T/C [9] 19.2% | viability, T/C [10] 21% | viability, T/C [11] 21.1% | viability, T/C [12] 13.9% | viability, T/C [13] 28.1% | viability, T/C [14] 21.2% | viability, T/C [15] 20.8% | viability, T/C [16] 19.1% | viability, T/C [17] 18.2% | viability, T/C [18] 14.7% | viability, T/C [19] 23.1% | viability, T/C [20] 24.4% | viability, T/C [21] 20.3% | viability, T/C [22] 18.3% | viability, T/C [23] 17% | viability, T/C [24] 16% | viability, T/C [25] 24.7% | viability, T/C [26] 21.1% | viability, T/C [27] 22.5% | viability, T/C [28] 20.7% | viability, T/C [29] 13.8% | viability, T/C [30] 16.6% | viability, T/C [31] 22.4% | viability, T/C [32] 21.3% | viability, T/C [33] 20.1% | viability, T/C [34] 15% | viability, T/C [35] 16.7% | viability, T/C [36] 14.9%

O=C(c1ccc(F)c(F)c1Nc1ccc(I)cc1F)N1CC(O)([C@@H]2CCCCN2)C1 + CCn1c(-c2cccnc2C(C)OC)c2c3cc(ccc31)N1CCOC(CC(NC(=O)C(C(C)C)N(C)C(=O)C3(F)CCN(C(=O)C#CC(C)(C)N(C)C)CC3)C(=O)N3CCCC(N3)C(=O)OCC(C)(C)C2)C1
active: viability, T/C [4] 6.86% | viability, T/C [16] 8.22% | viability, T/C [22] 9.45% | viability, T/C [28] 9.76% | viability, T/C [34] 9.07%
inactive: viability, T/C (second compound 0.000949 µM, first compound 0.00316 µM) 32.3% | viability, T/C (second compound 0.000949 µM, first compound 0.01 µM) 33.2% | viability, T/C [1] 26.2% | viability, T/C [2] 31.8% | viability, T/C [3] 16.7% | viability, T/C (second compound 0.003 µM, first compound 0.00316 µM) 112% | viability, T/C (second compound 0.003 µM, first compound 0.01 µM) 54.8% | viability, T/C [7] 51.7% | viability, T/C [8] 42.8% | viability, T/C [9] 27.8% | viability, T/C [10] 10.3% | viability, T/C (second compound 0.00949 µM, first compound 0.00316 µM) 34.5% | viability, T/C (second compound 0.00949 µM, first compound 0.01 µM) 25.4% | viability, T/C [13] 29.8% | viability, T/C [14] 25.9% | viability, T/C [15] 14.6% | viability, T/C (second compound 0.03 µM, first compound 0.00316 µM) 30.1% | viability, T/C (second compound 0.03 µM, first compound 0.01 µM) 30.7% | viability, T/C [19] 28.3% | viability, T/C [20] 25.4% | viability, T/C [21] 12.6% | viability, T/C (second compound 0.0949 µM, first compound 0.00316 µM) 29.1% | viability, T/C (second compound 0.0949 µM, first compound 0.01 µM) 30.2% | viability, T/C [25] 30.9% | viability, T/C [26] 22.3% | viability, T/C [27] 11% | viability, T/C (second compound 0.3 µM, first compound 0.00316 µM) 29.4% | viability, T/C (second compound 0.3 µM, first compound 0.01 µM) 26.3% | viability, T/C [31] 26.5% | viability, T/C [32] 19.8% | viability, T/C [33] 11%
26 nM: IC50 (second compound 0.003 µM)
< 3.16 nM: IC50 (second compound 0.000949 µM) | IC50 (second compound 0.00949 µM) | IC50 (second compound 0.03 µM) | IC50 (second compound 0.0949 µM) | IC50 (second compound 0.3 µM)
